In publication PMC7113723 (Antiviral Research, 2017):
Like-named read-outs stand apart in the source and are kept apart here.

Experiments:
HCoV-229E [1] = experiment: microbe, parasite or virus in culture; assay type: cell-based; conditions: Human coronavirus 229E, MRC5, 24 h
MERS-CoV = experiment: microbe, parasite or virus in culture; assay type: cell-based, Middle East Respiratory Syndrome coronavirus
HRV A1 [2] = experiment: microbe, parasite or virus in culture; assay type: cell-based, human rhinovirus A1; conditions: Rhinovirus A, MRC5, 24 h
PV [3] = experiment: microbe, parasite or virus in culture; assay type: cell-based, poliovirus type 1; conditions: Enterovirus C, MRC5, 24 h
HCoV-229E [4] = experiment: microbe, parasite or virus in culture; assay type: cell-based; conditions: Human coronavirus 229E, PBMC
HCoV-229E [5] = experiment: microbe, parasite or virus in culture; assay type: cell-based; conditions: Human coronavirus 229E, Huh-7, 24 h
HRV A1 [6] = experiment: microbe, parasite or virus in culture; assay type: cell-based, human rhinovirus A1; conditions: Rhinovirus A, HeLa, 24 h
PV [7] = experiment: microbe, parasite or virus in culture; assay type: cell-based, poliovirus type 1
[8] = system: 5′ UTR of the ß-actin mRNA; assay type: cell-based
5′ UTR of PIM1 = assay type: cell-based
[9] = system: 5′ UTR of the classical swine fever virus (CSFV); assay type: cell-based
EBOV 5′ UTR VP40 = assay type: cell-based, Ebola virus
EBOV 5′ UTR L = assay type: cell-based, Ebola virus
5′ UTR of HCoV-229E = assay type: cell-based, human coronavirus 229E
5′ UTR of MERS-CoV = assay type: cell-based, Middle East Respiratory Syndrome coronavirus
HCoV-229E [10] = experiment: Immunofluorescence of viral dsRNA and nsp8 in HCoV-229E-infected MRC-5 cells; assay type: cell-based, human coronavirus 229E; conditions: MRC-5, MOI 3, 12 h p.i.
HCoV-229E [11] = assay type: cell-based, human coronavirus 229E; conditions: Huh-7 cells, MOI 3
HCoV-229E [12] = assay type: cell-based, human coronavirus 229E; conditions: MRC-5 cells, 10 nM silvestrol, MOI 3, 12 h and 48 h p.i.
EBOV = conditions: cited from earlier work
[13] = ref Saradhi et al., 2011; cited from earlier work
Cell toxicity, MTT assay = conditions: human, PBMCs
[14] = Middle East respiratory syndrome-related coronavirus, MRC5, 24 h

With `COC(=O)[C@H]1[C@@H](O)[C@@]2(O)c3c(OC)cc(O[C@@H]4O[C@@H]([C@H](O)CO)CO[C@H]4OC)cc3O[C@@]2(c2ccc(OC)cc2)[C@@H]1c1ccccc1` [silvestrol] the EC50 (HCoV-229E [1]) was 3 nM, the EC90 (HCoV-229E [1]) was 27 nM and the “SI, selectivity index” value (MERS-CoV) was over 7690. For the same compound, the EC50 (MERS-CoV; [14]) was 1.3 nM, the EC90 (MERS-CoV; [14]) was 12 nM and the EC50 (HRV A1 [2]) was about 100 nM. For the same compound, the EC90 (HRV A1 [2]) was 900 nM, the EC50 (PV [3]) was about 20 nM and the EC90 (PV [3]) was 180 nM. It also gave an EC50 (HCoV-229E [4]) of 3.5 nM, an EC50 (HCoV-229E [4]; 24 h) of 2.8 nM and an EC90 (HCoV-229E [4]; 24 h) of 25 nM. For the same compound, the EC50 (HCoV-229E [5]) was 40 nM, the EC90 (HCoV-229E [5]) was 360 nM and the EC50 (HRV A1 [6]) was 400 nM. For the same compound, the EC90 (HRV A1 [6]) was 3600 nM, the “SI, selectivity indices” value (PV [7]) was at most 1.6 and the EC50 (PV [7]; Enterovirus C, Vero, 24 h) was 100 nM. The EC90 (PV [7]; Enterovirus C, Vero, 24 h) was 900 nM, the “inhibition of firefly luciferase expression” value [8] was “not more than 10%” and the “inhibition of firefly luciferase expression” value (5′ UTR of PIM1) was about 40%. The “sensitivity towards silvestrol in the dual luciferase assay” value [9] was “no sensitivity”, the “decrease of firefly luciferase activity” value (EBOV 5′ UTR VP40) was 23% and the “decrease of firefly luciferase activity” value (EBOV 5′ UTR L) was 33%. For the same compound, the “decrease of luciferase activity” value (5′ UTR of HCoV-229E) was about 40%, the “decrease of luciferase activity” value (5′ UTR of MERS-CoV) was about 40% and the “viral dsRNA and nsp8 protein (immunofluorescence)” value (HCoV-229E [10]; 10 nM silvestrol) was “significant decrease”. For the same compound, the “viral dsRNA and nsp8 protein (immunofluorescence)” value (HCoV-229E [10]; 100 nM silvestrol) was “nearly no viral dsRNA and nsp8 could be detected”, the “N and nsp8 protein accumulation (Western blot)” value (shortened to “N and nsp8 protein accumulation”) (HCoV-229E [11]; 100 nM silvestrol) was “essentially undetectable” and the “N and nsp8 protein accumulation” value (HCoV-229E [11]; silvestrol up to 10 nM) was “unaffected”. For the same compound, the “N and nsp8 protein accumulation” value (HCoV-229E [12]) was “very low amounts”, the EBOV titers (EBOV) was “strongly reduce EBOV titers” and the “pharmacokinetics in terms of bioavailability and biostability” value [13] was “favorable pharmacokinetics”. The CC50 at 24 h (Cell toxicity, MTT assay) was over 1000 nM.
